# Measurements taken from patent US11866483B2, “Fibrosis-inhibiting composition, cells producing same, and cell sheet comprising said cells” (KanonCure, Inc., priority 2018, dated 2024).
# What was measured:
# MMP-13 (active form) = test: Western blotting of culture supernatant of UE7T-13 cells, MMP-13; type: cell-based; settings: 15 μM IC-2, UE7T-13 cells, culture supernatant Day 9, vs 0.1% DMSO
# Procedure: (§1) The number of the culture dishes prepared was 6.
# (§2) The culture medium was exchanged in the same manner as Day 0. […] That is, the cells of chemical-untreated group, of which culture medium was collected for MSC, were seeded on 3 culture dishes with a diameter of 10 cm.
# (§3) (2) A 12 ml aliquot of the supernatant was transferred to an Amicon Ultra-15 Centrifugal Filter Unit and was centrifuged at 5,000 g for 60 to 90 min.
# (§4) (3) The absorbance of the enriched culture supernatant (secretome) was measured using a NanoDrop at 280 nm and the protein level was assayed. The blank culture medium and 2× modified RIPA buffer were added to adjust the protein concentration to 1.0 μg/μl. Then, a sonicator (BioRuptur manufactured by COSMO BIO, Tokyo, Japan) was used to perform the total 1 min and 4 cycles of sonication, each cycle including sonication at 200 W for 15 sec and a pause for 30 sec in ice bath. Then, 5×SDS sample buffer was added to adjust the protein concentration to 0.8 μg/μl. Finally, a block incubator (IKA, Staufen, Germany) was used for heat denaturing at 98° C. for 5 min. […]
# (§5) After completion of the primary antibody reaction, the membranes were washed in a suitable volume of TBS-T for 10 min 3 times. […] After that, 1 ml of ECL Prime liquid (GE Healthcare Life Sciences) was applied to each membrane of which chemiluminescence was detected with a LAS-4000 (Fujifilm Corporation, Tokyo, Japan).
# MMP-2 = test: Western blotting of culture supernatant of UE7T-13 cells, MMP-2; type: cell-based; settings: 15 μM IC-2, UE7T-13 cells, culture supernatant Day 9, vs 0.1% DMSO
# Procedure: as §1, §2, §3, §4, §5
# MMP-1 = test: Western blotting of culture supernatant of UE7T-13 cells, MMP-1; type: cell-based; settings: 15 μM IC-2, UE7T-13 cells, culture supernatant Day 9, vs 0.1% DMSO
# Procedure: as §1, §2, §3, §4, §5
# MMP-14 = test: Western blotting of culture supernatant of UE7T-13 cells, MMP-14; type: cell-based; settings: 15 μM IC-2, UE7T-13 cells, culture supernatant Day 9, vs 0.1% DMSO
# Procedure: as §1, §2, §3, §4, §5
# thioredoxin (TRX) = settings: 15 μM IC-2, UE7T-13 cells, culture supernatant Day 9
# Procedure: Expression and production of MMP family members and TRX in cultured cells or the secreted products of those cells were determined by Western blotting and ELISA.
# Cells: bone marrow-derived mesenchymal stem cell line, UE7T-13 cells.
# UE7T-13 cells were seeded on each culture dish with a diameter of 10 cm such that the cell count in each dish was 9.0×10^3 cells/cm^2. The number of the culture dishes prepared was 6.
# Cells in the remaining 3 culture dishes were treated with DMSO as control. Specifically, DMSO was added by completely exchanging the culture medium with DMEM/10% FBS containing DMSO at the final concentration of 0.1%.
# For the DMSO treatment control, the culture medium was completely exchanged with DMEM/0.05% FBS containing DMSO at the final concentration of 0.1%. For the MSC group, the culture medium was completely exchanged with DMEM/0.05% FBS.
# (1) A 5 ml aliquot of culture medium was collected from the culture dishes and these aliquots were combined in one tube for each group. […]
# The aliquots of culture supernatants collected at Day 9 for ELISA assay were used to determine the production of thioredoxin by ELISA. […] The absorbance at 450 nm was measured using a microplate reader (Tecan Group Ltd). The content of thioredoxin in the culture supernatants was calculated from the absorbance using the calibration curve.
smiles,measurement,setting,value
"O=C1[C@H](c2ccccc2)N2C(=O)CCN(C(=O)NCc3ccccc3)[C@H]2CN1Cc1cccc2ccccc12 [IC-2, (6S, 9aS)-6-phenyl-8-naphthalen-1-ylmethyl-4,7-dioxo-hexahydro-pyrazino[1,2-a] pyrimidine-1-carbocylic acid benzylamide]",MMP-13 (active form) increase as compared to DMSO control group (chemiluminescence band intensity),MMP-13 (active form),about 5.1 fold
same,MMP-2 increase as compared to DMSO control group (chemiluminescence band intensity),MMP-2,about 1.5 fold
same,MMP-1 increase as compared to DMSO control group (chemiluminescence band intensity),MMP-1,about 4.1 fold
same,MMP-14 increase as compared to DMSO control group (chemiluminescence band intensity),MMP-14,about 2.1 fold
same,"production of thioredoxin, increase (ELISA)",thioredoxin (TRX),1.5 fold
